This passage reports IC50 results from patent US20250325552A1, “SUBSTITUTED THIADIAZOLYL DERIVATIVES AS DNA POLYMERASE THETA INHIBITORS” (IDEAYA Biosciences, Inc., priority 2020, published 2025).

This experiment has as its target Polθ theta (1-899) (hPolQ) (Homo sapiens (Human), UniProt O75417). In words: Biological Assay 1: Polθ ATPase activity, NADH oxidation-coupled enzymatic assay (10 nM enzyme, 30 min). The format is biochemical. To be noted: Polθ (1-899) 10 nM, 100 μM ATP, 300 nM dT50 ssDNA; Examples 1 to 268; read-out: ATPase NADH coupling:Standard Screening:hPolQ IC50. As for the experimental part:
The ability of the compounds of Formula (I), (II), (III), (IV), or Table 1 (Examples 1 to Example 268) to inhibit ATPase activity of Polθ theta (1-899) was determined using the assay described below.
Polθ Theta ATPase activity was determined by measuring the rate of ATP turn over in a NADH oxidation-coupled enzymatic assay. 10-point dilution series of compounds were used in a 384 well format for the inhibition assays. Polθ theta (1-899) (10 nM) in assay buffer (20 mM Tris HCl (pH 7.80), 80 mM KCl, 10 mM MgCl2, 1 mM DTT, 0.01% BSA, 0.01% Tween, 5% glycerol) was transferred to the test wells (20 μL), except the low control wells (20 μL of assay buffer was added to the low control wells). The plate was then incubated at room temperature for 15 min. An equal volume (20 μL) of 100 μM ATP, 300 nM dT50 (single-stranded DNA (ssDNA) containing 50 thymine bases), 300 μM NADH, 6 mM PEP, 10 U/mL lactate dehydrogenase and U/mL pyruvate kinase in assay buffer was added to all the test wells. The plate was then centrifuged at 1000 rpm for 1 min. The reaction was monitored for 30 min by measuring absorbance (λ=340 nm) in a Tecan Spark multimode plate reader every minute. The high control (DMSO with enzyme) with low absorbance intensity represents no inhibition of ATPase reaction while the low control (DMSO with buffer) with high absorbance intensity represents full inhibition of ATPase activity. Slope of the reaction progress curves were used to calculate the rate of ATP hydrolysis. The rates were used to determine the percent inhibition using a four-parameter inhibition model to generate IC50, Hill slope and max inhibition.

Polθ theta (1-899) (hPolQ), sequence (O75417 1-899): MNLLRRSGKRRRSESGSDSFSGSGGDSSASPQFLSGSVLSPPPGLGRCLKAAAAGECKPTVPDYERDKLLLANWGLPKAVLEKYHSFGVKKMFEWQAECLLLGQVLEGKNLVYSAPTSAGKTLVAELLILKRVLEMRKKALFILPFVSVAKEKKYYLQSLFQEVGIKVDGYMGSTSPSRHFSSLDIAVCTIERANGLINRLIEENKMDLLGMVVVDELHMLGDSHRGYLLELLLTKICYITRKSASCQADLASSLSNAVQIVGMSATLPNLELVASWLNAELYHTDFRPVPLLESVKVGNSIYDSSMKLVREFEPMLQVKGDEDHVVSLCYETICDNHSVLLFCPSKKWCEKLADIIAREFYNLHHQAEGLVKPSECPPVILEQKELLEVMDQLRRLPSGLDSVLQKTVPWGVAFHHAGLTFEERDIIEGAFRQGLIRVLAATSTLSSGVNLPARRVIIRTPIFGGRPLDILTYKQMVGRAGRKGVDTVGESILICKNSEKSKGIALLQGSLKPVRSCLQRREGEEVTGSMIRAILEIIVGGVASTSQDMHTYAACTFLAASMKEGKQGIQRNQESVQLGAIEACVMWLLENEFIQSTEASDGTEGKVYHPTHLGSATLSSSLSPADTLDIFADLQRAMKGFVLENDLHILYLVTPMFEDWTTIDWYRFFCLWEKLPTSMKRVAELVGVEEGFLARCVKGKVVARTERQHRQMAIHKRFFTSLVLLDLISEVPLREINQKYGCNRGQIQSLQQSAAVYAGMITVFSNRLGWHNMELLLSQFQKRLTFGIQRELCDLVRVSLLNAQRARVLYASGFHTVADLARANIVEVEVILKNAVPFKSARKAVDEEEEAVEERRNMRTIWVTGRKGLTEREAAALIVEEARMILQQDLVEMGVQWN

`COc1cccc(F)c1-c1cc(C)ncc1C(=O)Nc1nnc(OCC23CCC(F)(CC2)CC3)s1` [Example 65, 4-(2-fluoro-6-methoxyphenyl)-N-(5-((4-fluorobicyclo(2.2.2)octan-1-yl)methoxy)-1,3,4-thiadiazol-2-yl)-6-methylnicotinamide]: the half-inhibitory concentration (IC50) is at most 200 nM.

On to `COc1cnc(Cl)cc1-c1cc(C)ncc1C(=O)Nc1nnc(OC[C@H]2COC(C)(C)CO2)s1` (single isomer, unassigned) [Example 223], for which the IC50 is at most 200 nM. In the case of `COc1cnc(Cl)cc1-c1cc(C)ncc1C(=O)Nc1nnc(OC[C@@H]2CCO[C@H]2C)s1` (single isomer, unassigned) [Example 180] it was at most 200 nM; in that of `COc1cnc(Cl)cc1-c1cc(C)ncc1C(=O)Nc1nnc(OCC2COC(CO)CO2)s1` (stereo not shown) [Example 246, 2′-chloro-N-(5-((5-(hydroxymethyl)-1,4-dioxan-2-yl)methoxy)-1,3,4-thiadiazol-2-yl)-5′-methoxy-6-methyl-(4,4′-bipyridine)-3-carboxamide], at most 200 nM. As for `Cc1cc(-c2c(F)cccc2OC(F)F)c(C(=O)Nc2nnc(OCc3cnc(CO)cn3)s2)cn1` [Example 70, 4-(2-(difluoromethoxy)-6-fluorophenyl)-N-(5-((5-(hydroxymethyl)pyrazin-2-yl)methoxy)-1,3,4-thiadiazol-2-yl)-6-methylnicotinamide], the IC50 was at most 200 nM. For `COc1cnc(Cl)cc1-c1cc(C)ncc1C(=O)Nc1nnc(OCC23CC(C(C)(C)F)(C2)C3)s1` [Example 163, 2′-chloro-N-(5-((3-(2-fluoropropan-2-yl)bicyclo(1.1.1)pentan-1-yl)methoxy)-1,3,4-thiadiazol-2-yl)-5′-methoxy-6-methyl-(4,4′-bipyridine)-3-carboxamide], the IC50 is at most 200 nM. `COc1c(-c2cc(C)ncc2C(=O)Nc2nnc(OCc3ccc(Cl)cn3)s2)ccnc1Cl` [Example 77, 2′-chloro-N-(5-((5-chloropyridin-2-yl)methoxy)-1,3,4-thiadiazol-2-yl)-3′-methoxy-6-methyl-(4,4′-bipyridine)-3-carboxamide]: the 50% inhibitory concentration (IC50) is at most 200 nM. In the case of `COc1cccc(F)c1-c1cc(C)ncc1C(=O)Nc1nnc(OCc2ccc(OC3COC3)cn2)s1` [Example 38, 4-(2-fluoro-6-methoxyphenyl)-6-methyl-N-(5-((5-(oxetan-3-yloxy)pyridin-2-yl)methoxy)-1,3,4-thiadiazol-2-yl)pyridine-3-carboxamide] it was at most 200 nM. `Cc1cc(-c2cc(Cl)ncc2OC(F)F)c(C(=O)Nc2nnc(OC[C@@H]3CCOC3)s2)cn1` (single isomer, unassigned) [Example 258]: the half-maximal inhibitory concentration (IC50) was at most 200 nM. `COc1ccc(Cl)cc1-c1cc(C)ncc1C(=O)Nc1nnc(OCc2ccc([S@](C)(=N)=O)cc2)s1` [Example 122, (R)-4-(5-chloro-2-methoxyphenyl)-6-methyl-N-(5-((4-(S-methylsulfonimidoyl)benzyl)oxy)-1,3,4-thiadiazol-2-yl)nicotinamide]: the half-maximal inhibitory concentration (IC50) is at most 200 nM.

Take `COc1cnc(Cl)cc1-c1cc(C)ncc1C(=O)Nc1nnc(OC[C@H]2CO[C@@H](C)C2)s1` (single isomer, unassigned) [Example 251]: the half-inhibitory concentration (IC50) is at most 200 nM.

As for `COc1cnc(Cl)cc1-c1cc(C)ncc1C(=O)Nc1nnc(OCc2ccc(C3(C)COC3)cn2)s1` [Example 86, 2′-chloro-5′-methoxy-6-methyl-N-(5-((5-(3-methyloxetan-3-yl)pyridin-2-yl)methoxy)-1,3,4-thiadiazol-2-yl)-[4,4′-bipyridine]-3-carboxamide], the IC50 was at most 200 nM. Turning to `COc1cnc(C)cc1-c1cc(C)ncc1C(=O)Nc1nnc(OC[C@H]2C[C@H](O)C2)s1` [Example 107, N-(5-(((1r,3r)-3-hydroxycyclobutyl)methoxy)-1,3,4-thiadiazol-2-yl)-5′-methoxy-2′,6-dimethyl-[4,4′-bipyridine]-3-carboxamide], the half-maximal inhibitory concentration (IC50) is at most 200 nM. For the compound `COc1cnc(Cl)cc1-c1cc(C)ncc1C(=O)Nc1nnc(OC[C@H]2CC[C@H](F)CC2)s1` [Example 197, 2′-chloro-N-(5-(((1r,4r)-4-fluorocyclohexyl)methoxy)-1,3,4-thiadiazol-2-yl)-5′-methoxy-6-methyl-(4,4′-bipyridine)-3-carboxamide], the IC50 was at most 200 nM. As to `COc1cnc(Cl)cc1-c1cc(C)ncc1C(=O)Nc1nnc(OC[C@H]2CC[C@](C)(O)CC2)s1` [Example 214, 2′-chloro-N-(5-(((1r,4r)-4-hydroxy-4-methylcyclohexyl)methoxy)-1,3,4-thiadiazol-2-yl)-5′-methoxy-6-methyl-(4,4′-bipyridine)-3-carboxamide], the half-inhibitory concentration (IC50) is at most 200 nM. In the case of `COc1cccc(F)c1-c1cc(C)ncc1C(=O)Nc1nnc(OCc2ccc([C@H](C)O)cn2)s1` [Example 40, 4-(2-fluoro-6-methoxyphenyl)-N-(5-((5-((S)-1-hydroxyethyl)pyridin-2-yl)methoxy)-1,3,4-thiadiazol-2-yl)-6-methylnicotinamide] it was at most 200 nM; in that of `Cc1cc(-c2cc(Cl)ncc2OC(F)F)c(C(=O)Nc2nnc(OC[C@@H]3COCCO3)s2)cn1` [Example 233, (S)—N-(5-((1,4-dioxan-2-yl)methoxy)-1,3,4-thiadiazol-2-yl)-2′-chloro-5′-(difluoromethoxy)-6-methyl-(4,4′-bipyridine)-3-carboxamide], at most 200 nM; in that of `COc1cnc(Cl)cc1-c1cc(C)ncc1C(=O)Nc1nnc(OC[C@@H]2CO[C@H](CO)CO2)s1` (racemic) [Example 237, rel-2′-chloro-N-(5-(((2s,5r)-5-(hydroxymethyl)-1,4-dioxan-2-yl)methoxy)-1,3,4-thiadiazol-2-yl)-5′-methoxy-6-methyl-(4,4′-bipyridine)-3-carboxamide], at most 200 nM. Regarding `COc1cnc(Cl)cc1-c1cc(C)ncc1C(=O)Nc1nnc(OC[C@]2(F)CCOC2)s1` (single isomer, unassigned) [Example 264], the IC50 is at most 200 nM.

For `COc1cnc(Cl)c(F)c1-c1cc(C)ncc1C(=O)Nc1nnc(OC[C@H]2COCCO2)s1` [Example 240, N-(5-(((R)-1,4-dioxan-2-yl)methoxy)-1,3,4-thiadiazol-2-yl)-2′-chloro-3′-fluoro-5′-methoxy-6-methyl-(4,4′-bipyridine)-3-carboxamide], the IC50 was at most 200 nM. Take `COc1cnc(Cl)cc1-c1cc(C)ncc1C(=O)Nc1nnc(OCc2ccc([C@@H](C)O)cn2)s1` [Example 69, (R)-2′-chloro-N-(5-((5-(1-hydroxyethyl)pyridin-2-yl)methoxy)-1,3,4-thiadiazol-2-yl)-5′-methoxy-6-methyl-(4,4′-bipyridine)-3-carboxamide]: the half-inhibitory concentration (IC50) is at most 200 nM. In the case of `Cc1cc(-c2c(F)cccc2OC(F)F)c(C(=O)Nc2nnc(OCc3ccc([C@@H](C)O)cn3)s2)cn1` [Example 57, 4-(2-(difluoromethoxy)-6-fluorophenyl)-N-(5-((5-((R)-1-hydroxyethyl)pyridin-2-yl)methoxy)-1,3,4-thiadiazol-2-yl)-6-methylnicotinamide], the 50% inhibitory concentration (IC50) was at most 200 nM. Turning to `COc1ccc(Cl)cc1-c1cc(C)ncc1C(=O)Nc1nnc(OCc2ccc(CO)cn2)s1` [Example 39, 4-(5-chloro-2-methoxyphenyl)-N-(5-((5-(hydroxymethyl)pyridin-2-yl)methoxy)-1,3,4-thiadiazol-2-yl)-6-methylpyridine-3-carboxamide], the half-inhibitory concentration (IC50) was at most 200 nM. `COc1cnc(Cl)cc1-c1cc(C)ncc1C(=O)Nc1nnc(OCC2(C)CCOC2)s1` (stereo not shown) [Example 131, 2′-chloro-5′-methoxy-6-methyl-N-(5-((3-methyloxolan-3-yl)methoxy)-1,3,4-thiadiazol-2-yl)-(4,4′-bipyridine)-3-carboxamide]: the 50% inhibitory concentration (IC50) is at most 200 nM. `CN=[S@](C)(=O)c1ccc(COc2nnc(NC(=O)c3cnc(C)cc3-c3cc(Cl)ccc3OC)s2)nc1` [Example 144, (R)-4-(5-chloro-2-methoxyphenyl)-N-(5-((5-(N,S-dimethylsulfonimidoyl)pyridin-2-yl)methoxy)-1,3,4-thiadiazol-2-yl)-6-methylnicotinamide]: the IC50 was at most 200 nM.

Consider `COc1cnc(Cl)cc1-c1cc(C)ncc1C(=O)Nc1nnc(OC[C@@H]2COC3(CCC3)C2)s1` (single isomer, unassigned) [Example 226], for which the concentration for half-maximal inhibition (IC50) is at most 200 nM. Take `COc1ccccc1-c1cnccc1C(=O)Nc1nnc(OCC2CCOCC2)s1` [compound 1, 3-(2-methoxyphenyl)-N-(5-((tetrahydro-2H-pyran-4-yl)methoxy)-1,3,4-thiadiazol-2-yl)isonicotinamide]: the concentration for half-maximal inhibition (IC50) lay within 200 to 500 nM. For the compound `Cc1cc(-c2ccccc2OC(F)F)c(C(=O)Nc2nnc(OCc3ccc(CO)cn3)s2)cn1` [Example 17, 4-(2-(difluoromethoxy)phenyl)-N-(5-((5-(hydroxymethyl)pyridin-2-yl)methoxy)-1,3,4-thiadiazol-2-yl)-6-methylpyridine-3-carboxamide], the IC50 was at most 200 nM.

As usually defined, the IC50 is the point on the concentration scale where inhibition reaches its midpoint.
